Measurements reported in ChEMBL document CHEMBL5149973, “Agaricus bisporus-Derived Glucosamine Hydrochloride Facilitates Skeletal Injury Repair through Bmp Signaling in Zebrafish Osteoporosis Model” (J Nat Prod, 2021).
Activity calls are given as the source filed them. No cut-off for these calls is given here.

How the values were obtained:
Danio rerio [1] = species: Danio rerio; assay: Anti-osteoporosis activity in FAC-induced skeletal injury Zebrafish assessed as increase in cumulative bone optical density in spine at 0.1 % measured for 10 day post fertilization; type: functional, organism-based
Osteoblast [2] = assay: Induction of osteoblast differentiation in transgenic osx mCherry Zebrafish embryo assessed as increase in Sox9b mRNA expression in fin at 0.1 % measured after 15 days by semiquantitative PCR analysis; type: functional, tissue-based; conditions: Danio rerio, time 15.0 day
Danio rerio [3] = species: Danio rerio; assay: Anti-osteoporosis activity in FAC-induced skeletal injury Zebrafish assessed as increase in cumulative bone optical density in caudal fins at 0.1 % measured for 10 day post fertilization; type: functional, organism-based
Osteoblast [4] = assay: Induction of osteoblast differentiation in transgenic osx mCherry Zebrafish embryo assessed as increase in Sox9a mRNA expression in fin at 0.1 % measured after 15 days by semiquantitative PCR analysis; type: functional, tissue-based; conditions: Danio rerio, time 15.0 day
Osteoblast [5] = assay: Induction of osteoblast differentiation in transgenic osx mCherry Zebrafish embryo assessed as increase in Col1a2 mRNA expression in fin at 0.1 % measured after 15 days by semiquantitative PCR analysis; type: functional, tissue-based; conditions: Danio rerio, time 15.0 day
Osteoblast [6] = assay: Induction of osteoblast differentiation in transgenic osx mCherry Zebrafish embryo assessed as increase in Col10a1a mRNA expression in fin at 0.1 % measured after 15 days by semiquantitative PCR analysis; type: functional; conditions: Danio rerio, time 15.0 day
Danio rerio [7] = species: Danio rerio; assay: Suppression of Bmp signaling in Zebrafish tBr injected mRNA embryos assessed as reduction in slight loss of tail tissue at 2.5 uM measured at 26 hrs post fertilization; type: functional, Embryo; set-up: scale not given: the % may be the effect or the level left
Danio rerio [8] = species: Danio rerio; assay: Suppression of Bmp signaling in Zebrafish tBr injected mRNA embryos assessed as reduction in indistinctive tail tissue at 2.5 uM measured at 26 hrs post fertilization; type: functional, Embryo; set-up: scale not given: the % may be the effect or the level left

Row | Structure (SMILES) | Activity (Danio rerio [1]) | Activity (Osteoblast [2]) | Activity (Danio rerio [3]) | Activity (Osteoblast [4]) | Activity (Osteoblast [5]) | Activity (Osteoblast [6]) | Activity (Danio rerio [7]) [%] | Activity (Danio rerio [8]) [%]
1 | NCCCC(O)(P(=O)(O)O)P(=O)(O)O | Active | Active | Active | Active | Active | Active |  | 
2 | c1cc(-c2cnn3cc(-c4ccc(OCCN5CCCCC5)cc4)cnc23)ccn1 [DORSOMORPHIN] |  |  |  |  |  |  | 80 | 80
